Data on two molecules can be found in patent US4689345A, “Oxygenated alkyl substituted bicyclo alkanes” (CBD Corporation, priority 1986, dated 1987).

“Also recorded” adds a separate entry of the source.

The subject of assay [1] is estrogen receptor (keloid cytosol). Kind of assay: Keloid cytosol steroid binding assay, estrogen. Further details: species or system human.
Assay [2] relates to human fibroblast cells. Kind of assay: Elastin production by fibroblast cells. Type of assay: cell-based. From the text:
(§1) Experiments generally following the methodology of Boote et al., Biochimica et Biophysica Acta, Volume 607, pages 145-160 (1980), have shown that while control human fibroblast cells have copious collagen production, treatment with the compounds of the invention provides human fibroblast cells with suppressed collagen production and with an about 30% increase in elastin production over control cells.
(§2) Wrinkling of the skin involves the decreased formation of elastin and the increased formation of collagen by supporting cells, predominantly the fibroblasts.

Assay [3] deals with human fibroblast cells. Kind of assay: Collagen production by fibroblast cells. Particulars: treated vs control cells. It is filed as cell-based.
Source text: as §1, §2

Estrogen: in assay [1] (male patients), the “estrogen binding, male patients” value is “neither detectable”. For the same molecule, the “Binding of Estrogen” value in assay [1] (patient 1) amounted to 9; in assay [1] (patient 2) it was 4.

On to `CCOC(CC)CCCCC1CCC2CC(=O)CC12` (stereo not drawn) [Compound VI, 2-(5-ethoxyhept-1-yl)bicyclo[3.3.0]octan-7-one], for which the formation of elastin entry in the assay on human fibroblast cells [2] (Example 45) was “massive observable increase in the formation of elastin”. In the assay on human fibroblast cells [2] (treated vs control (non-treated) fibroblast cells), the “increase in elastin production over control cells” value is given as around 30%. Also, the collagen production/formation entry in the assay on human fibroblast cells [3] is “decrease in collagen production; also recorded: decreased”.
